One experiment deals with Lys265Met MSOX mutant (Bacillus sp., UniProt P40859, K266M). The following applies: absorption spectrum of mutant unaffected by 2.0 M potassium chloride.
The target in experiment [1] is T1, reduced MSOX (Bacillus sp., UniProt P40859).
In the next experiment the target is GOX (glucose oxidase) (Aspergillus niger, UniProt P13006). Nature of the experiment: biochemical.
In experiment [2] the target is T2, MSOX (monomeric sarcosine oxidase) (Bacillus sp., UniProt P40859).
T2 sequence (P40859 1-390): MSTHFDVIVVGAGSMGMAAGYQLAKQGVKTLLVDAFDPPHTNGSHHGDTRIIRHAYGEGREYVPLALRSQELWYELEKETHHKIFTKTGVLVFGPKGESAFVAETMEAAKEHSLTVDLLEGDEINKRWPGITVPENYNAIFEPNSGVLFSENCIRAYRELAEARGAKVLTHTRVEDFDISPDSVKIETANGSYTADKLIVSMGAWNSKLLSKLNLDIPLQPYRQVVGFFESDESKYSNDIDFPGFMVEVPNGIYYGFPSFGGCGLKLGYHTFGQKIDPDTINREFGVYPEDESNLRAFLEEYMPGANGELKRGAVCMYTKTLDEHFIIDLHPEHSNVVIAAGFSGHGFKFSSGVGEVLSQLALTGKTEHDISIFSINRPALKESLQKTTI
Kind of experiment: Spectral titration of MSOX. It is filed as binding. The following applies: for Kd: 50 mM potassium phosphate buffer.

Experiment [3] has as its target T1, reduced MSOX. The following applies: absence of chloride; cited from earlier work.
The target in experiment [4] is T1, reduced MSOX. Kind of experiment: biochemical.

The values below come from PMC3448946 (Biochemistry, 2011).

Like-named read-outs stand apart in the source and are kept apart here.

Chain of GOX (glucose oxidase) (P13006 23-605 limits assumed): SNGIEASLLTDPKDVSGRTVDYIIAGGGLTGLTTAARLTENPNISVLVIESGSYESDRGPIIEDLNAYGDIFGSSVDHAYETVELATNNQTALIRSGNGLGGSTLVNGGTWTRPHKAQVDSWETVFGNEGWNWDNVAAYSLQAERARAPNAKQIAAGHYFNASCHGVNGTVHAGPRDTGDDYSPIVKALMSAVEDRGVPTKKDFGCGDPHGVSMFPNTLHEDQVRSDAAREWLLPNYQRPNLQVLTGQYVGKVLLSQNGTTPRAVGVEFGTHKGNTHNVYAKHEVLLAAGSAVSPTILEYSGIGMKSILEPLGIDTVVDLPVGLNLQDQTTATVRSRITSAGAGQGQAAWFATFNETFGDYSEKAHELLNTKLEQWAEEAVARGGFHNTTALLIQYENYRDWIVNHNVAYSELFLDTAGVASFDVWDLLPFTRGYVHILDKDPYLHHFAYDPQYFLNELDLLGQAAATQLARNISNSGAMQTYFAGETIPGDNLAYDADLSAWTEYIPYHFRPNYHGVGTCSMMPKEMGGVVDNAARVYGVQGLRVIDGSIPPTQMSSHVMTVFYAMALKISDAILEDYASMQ

Take `Cl` [chloride]: the “Chloride binding to Lys265Met MSOX” value at Lys265Met MSOX mutant was “eliminates chloride binding”. The “Chloride binding at oxygen activation site of reduced MSOX in solution” value on reduced MSOX [1] is “not bound”. The equilibrium dissociation constant (Kd) on GOX (glucose oxidase) was 6.2 ± 0.1 mM.

Turning to `CSCC(=O)O` [MTA, methylthioacetate], the equilibrium dissociation constant (Kd) in experiment [2] (MSOX + MTA ⇄ MSOX•MTA, no additions, pH 8.0, 25 °C) came to 2.43 ± 0.02 mM; in experiment [2] (MSOX + MTA ⇄ MSOX•MTA, plus 667 mM sodium sulfate, pH 8.0, 25 °C, plus 667 mM sodium sulfate), 1.84 ± 0.01 mM; in experiment [2] (MSOX•Cl− + MTA ⇄ MSOX•Cl−•MTA, pH 8.0, containing 2.0 M potassium chloride, 25 °C, absorbance at 528 nm) it was 4.9 ± 0.07 mM.

On to `O=O` [oxygen], for which the “Second-order rate constant for reaction of reduced MSOX with oxygen” value at reduced MSOX [1] (50 mM potassium phosphate, pH 8.0, 2.0 M potassium chloride, 25 °C, monitored at 454 nm) is on record as 2.48 ± 0.03 × 10^5 M^−1 s^−1; at reduced MSOX [3], 2.83 ± 0.07 × 10^5 M^−1 s^−1. Also, the Kd at reduced MSOX [4] is not below 10 mM.

`O=S(=O)([O-])[O-].[Na+].[Na+]` [sulfate, sodium sulfate]: in experiment [2] (667 mM sodium sulfate control for ionic strength), the “Binding of sulfate to MSOX” value is “does not bind”.
